The target of the test is T1, human bradykinin B2 receptor (hB2R) (Homo sapiens, UniProt P30411).
T1 sequence (P30411 1-391): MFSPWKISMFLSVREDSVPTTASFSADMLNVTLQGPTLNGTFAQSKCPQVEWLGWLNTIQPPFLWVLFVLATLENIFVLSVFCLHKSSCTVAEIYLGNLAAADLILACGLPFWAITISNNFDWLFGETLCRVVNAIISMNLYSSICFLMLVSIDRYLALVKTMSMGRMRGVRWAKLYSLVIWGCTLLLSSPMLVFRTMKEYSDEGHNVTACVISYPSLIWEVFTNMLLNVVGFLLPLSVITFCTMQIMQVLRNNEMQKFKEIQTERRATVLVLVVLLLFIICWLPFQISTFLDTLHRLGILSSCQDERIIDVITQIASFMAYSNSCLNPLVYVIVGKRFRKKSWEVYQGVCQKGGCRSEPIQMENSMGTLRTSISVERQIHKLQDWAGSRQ
The test can be described thus: cell-based human bradykinin B2 receptor calcium mobilization (hB2R-CaM) assay. The settings on record: HTS041C cells, bradykinin at EC80, calcium mobilization; read-out: IC50-value towards human bradykinin B2 receptor (hB2R). The essentials:
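HTS041C cells stably expressing hB2R were serum-reduced, loaded with Calcium 6 dye and pre-incubated with compound (8-point, n=2, 0.1% DMSO) for 25 min at 37° C. Bradykinin was then added at EC80. IC50 came from a 4-parameter logistic fit of the max-min fluorescence signal (485/525 nm).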
On the technique in general: A change in cytosolic calcium serves as a functional read-out for many receptors and channels.
Regarding `Cc1cc(-n2cc(F)cn2)c2cccc(OCc3c(Cl)cc(F)cc3[C@H](C)NC(=O)[C@@H](O)C(C)C)c2n1` [Compound 22], the IC50 lay within 51 to 250 nM.

`Cc1cc(-n2cc(F)cn2)c2cccc(OCc3c(Cl)cc(F)cc3[C@H](C)NC(=O)[C@H](C)CO)c2n1` [Compound 59]: the IC50 was ≤ 50 nM. Take `Cc1cc(-n2cc(F)cn2)c2cccc(OCc3c(Cl)cc(F)cc3[C@H](C)N(C)C(=O)[C@H](C)Cl)c2n1` [Compound 103]: the IC50 was in the range of 51 to 250 nM. As to `Cc1cc(-n2cc(F)cn2)c2cccc(OCc3c(Cl)cc(F)cc3[C@H](C)NC(=O)[C@@H]3CC[C@H](C)O3)c2n1` [Compound 132], the IC50 is ≤ 50 nM. For the molecule `Cc1cc(-n2cc(F)cn2)c2cccc(OCc3c(Cl)cc(F)cc3[C@H](C)NC(=O)C(C)(C)O)c2n1` [Compound 23], the IC50 fell in the range of 51 to 250 nM. Consider `CC[C@H](NC(=O)c1coc(C)n1)c1cc(F)cc(Cl)c1COc1cccc2c(-c3ncnn3C)cc(C)nc12` [Compound 149], for which the IC50 was ≤ 50 nM. Then `COCC(=O)N[C@@H](C)c1cc(F)cc(Cl)c1COc1cccc2c(-n3cc(F)cn3)cc(C)nc12` [Compound 12], with ≤ 50 nM; and `Cc1cc(-c2ncnn2C)c2cccc(OCc3c(Cl)cc(F)cc3[C@H](C)NC(=O)[C@@H](C)OC(F)F)c2n1` [Compound 85], with ≤ 50 nM; and `CC[C@H](NC(=O)c1cocn1)c1cc(F)cc(Cl)c1COc1cccc2c(-n3ncnc3C)cc(C)nc12` [Compound 165], with ≤ 50 nM.

With `Cc1cc(-n2cc(F)cn2)c2cccc(OCc3c(Cl)cc(F)cc3[C@H](CO)NC(=O)C(C)(C)O)c2n1` [Compound 105], the IC50 was in the range of 51 to 250 nM.

With `Cc1cc(-n2nc(C)nc2C)c2cccc(OCc3c(Cl)cc(F)cc3[C@H](C)NC(=O)COC(F)F)c2n1` [Compound 134], the IC50 is ≤ 50 nM.

On to `CCn1ncnc1-c1cc(C)nc2c(OCc3c(Cl)cc(F)cc3[C@H](C)NC(=O)COC(F)F)cccc12` [Compound 140], for which the IC50 is ≤ 50 nM. In the case of `[2H][C@@](C)(NC(=O)[C@@H](C)F)c1cc(F)cc(Cl)c1COc1cccc2c(-n3ncnc3C)cc(C)nc12` [Compound 11C, (R)—N—((S)-1-deutero-1-(3-chloro-5-fluoro-2-((2-methyl-4-(5-methyl-1H-1,2,4-triazol-1-yl)quinolin-8-yloxy)methyl)phenyl)ethyl)-2-fluoropropanamide], the IC50 was ≤ 50 nM. `Cc1cc(-n2cc(F)cn2)c2cccc(OCc3c(Cl)cc(F)cc3[C@H](C)NC(=O)[C@@H](O)CN)c2n1` [Compound 21]: the IC50 was 251 to 1000 nM. Then `Cc1cc(-n2cc(F)cn2)c2cccc(OCc3c(Cl)cc(F)cc3[C@H](C)NC(=O)[C@@H]3CCCO3)c2n1` [Compound 14], with ≤ 50 nM. The figure for `Cc1cc(-c2[nH]ncc2C)c2cccc(OCc3c(Cl)cc(F)cc3[C@H](C)NC(=O)COC(F)F)c2n1` [Compound 185] is ≤ 50 nM.

Take `Cc1cc(-n2cc(F)cn2)c2cccc(OCc3c(Cl)cc(F)cc3[C@H](C)NC(=O)c3cn(C)cn3)c2n1` [Compound 108]: the IC50 lay within 51 to 250 nM. The figure for `Cc1cc(-c2ncnn2C)c2cccc(OCc3c(Cl)cc(F)cc3[C@H](C)NC(=O)CC(F)(F)F)c2n1` [Compound 177] is ≤ 50 nM; for `Cc1cc(-n2cc(F)cn2)c2cccc(OCc3c(Cl)cc(F)cc3[C@H](C)NC(=O)c3cnoc3C)c2n1` [Compound 89] it is 51 to 250 nM; for `CCn1ncnc1-c1cc(C)nc2c(OCc3c(Cl)cc(F)cc3[C@H](C)NC(=O)COC(F)(F)F)cccc12` [Compound 145] it is ≤ 50 nM. Take `Cc1cc(-n2cc(F)cn2)c2cccc(OCc3c(Cl)cc(F)cc3[C@H](C)NC(=O)C3(C)CCCO3)c2n1` (some centres unmarked) [Compound 110]: the half-maximal inhibitory concentration (IC50) is ≤ 50 nM. The figure for `Cc1cc(-n2cc(F)cn2)c2cccc(OCc3c(Cl)cc(F)cc3[C@H](C)NC(=O)[C@H](O)CN)c2n1` [Compound 3, (R)-3-amino-N—((S)-1-(3-chloro-5-fluoro-2-((4-(4-fluoro-1H-pyrazol-1-yl)-2-methylquinolin-8-yloxy)methyl)phenyl)ethyl)-2-hydroxypropanamide] is 251 to 1000 nM.

Consider `Cc1cc(-c2ncnn2C)c2cccc(OCc3c(Cl)cc(F)cc3[C@H](CO)NC(=O)COC(F)F)c2n1` [Compound 190], for which the IC50 was ≤ 50 nM. Then `Cc1cc(-n2cnc(C)n2)c2cccc(OCc3c(Cl)cc(F)cc3[C@H](C)NC(=O)COC(F)F)c2n1` [Compound 10, (S)—N-(1-(3-chloro-5-fluoro-2-((2-methyl-4-(3-methyl-1H-1,2,4-triazol-1-yl)quinolin-8-yloxy)methyl)phenyl)ethyl)-2-(difluoromethoxy)acetamide], with 51 to 250 nM; and `Cc1cc(-c2ncnn2C)c2cccc(OCc3c(Cl)cc(F)cc3[C@H](C)NC(=O)C(C)(C)O)c2n1` [Compound 64], with ≤ 50 nM; and `Cc1cc(-c2ncnn2C)c2cccc(OCc3c(Cl)cc(F)cc3[C@H](C)NC(=O)c3ccncc3)c2n1` [Compound 163], with ≤ 50 nM. The figure for `Cc1cc(-c2ccnn2C)c2cccc(OCc3c(Cl)cc(F)cc3[C@H](C)NC(=O)[C@H](C)O)c2n1` [Compound 195] is ≤ 50 nM. The figure for `Cc1cc(-c2ncc(C#N)n2C)c2cccc(OCc3c(Cl)cc(F)cc3[C@H](C)NC(=O)CC(F)(F)F)c2n1` [Compound 206] is ≤ 50 nM; for `Cc1cc(-n2cc(F)cn2)c2cccc(OCc3c(Cl)cc(F)cc3[C@H](C)NC(=O)[C@H]3COC(=O)N3)c2n1` [Compound 112] it is 51 to 250 nM. As for `CCC[C@H](O)C(=O)N[C@@H](C)c1cc(F)cc(Cl)c1COc1cccc2c(-n3cc(F)cn3)cc(C)nc12` [Compound 50], the IC50 was 51 to 250 nM. The figure for `Cc1cc(-n2cc(F)cn2)c2cccc(OCc3c(Cl)cc(F)cc3[C@H](C)NC(=O)[C@@H]3CNC(=O)N3)c2n1` [Compound 113] is 51 to 250 nM. Then `Cc1cc(-n2cc(F)cn2)c2cccc(OCc3c(Cl)cc(F)cc3[C@H](C)NC(=O)C[C@H](C)O)c2n1` [Compound 27], with ≤ 50 nM; and `Cc1cc(-c2[nH]ncc2C)c2cccc(OCc3c(Cl)cc(F)cc3[C@H](C)NC(=O)C(C)(C)O)c2n1` [Compound 189], with ≤ 50 nM; and `CC[C@H](NC(=O)c1ccon1)c1cc(F)cc(Cl)c1COc1cccc2c(-n3cc(F)cn3)cc(C)nc12` [Compound 153], with 51 to 250 nM. The figure for `Cc1cc(-n2cc(F)cn2)c2cccc(OCc3c(Cl)cc(F)cc3[C@H](C)NC(=O)C3CN(C)C3)c2n1` [Compound 65] is 251 to 1000 nM. With `CC[C@H](O)C(=O)N[C@@H](C)c1cc(F)cc(Cl)c1COc1cccc2c(-n3nccn3)cc(C)nc12` [Compound 33], the IC50 was in the range of 51 to 250 nM. Then `Cc1cc(-n2cc(F)cn2)c2cccc(OCc3c(Cl)cc(F)cc3[C@H](C)NC(=O)C(C)C(F)(F)F)c2n1` (some centres unmarked) [Compound 54], with 51 to 250 nM. The figure for `Cc1cc(-c2ncc(C#N)n2C)c2cccc(OCc3c(Cl)cc(F)cc3[C@H](C)NC(=O)C(C)F)c2n1` (some centres unmarked) [Compound 207] is ≤ 50 nM; for `[2H][C@@](C)(NC(=O)C(C)(F)F)c1cc(F)cc(Cl)c1COc1cccc2c(-c3ncnn3C)cc(C)nc12` [Compound 182] it is ≤ 50 nM; for `Cc1cc(-n2cc(F)cn2)c2cccc(OCc3c(Cl)cc(F)cc3[C@H](C)NC(=O)c3ccncc3)c2n1` [Compound 125] it is 51 to 250 nM. Turning to `[2H][C@@](C)(NC(=O)COC(F)F)c1cc(F)cc(Cl)c1COc1cccc2c(-n3ncnc3C)cc(C)nc12` [Compound 168], the concentration for half-maximal inhibition (IC50) is ≤ 50 nM.

`CCOCC(=O)N[C@@H](C)c1cc(F)cc(Cl)c1COc1cccc2c(-c3ncnn3C)cc(C)nc12` [Compound 84]: the IC50 was ≤ 50 nM.

Consider `Cc1cc(-n2cc(F)cn2)c2cccc(OCc3c(Cl)cc(F)cc3[C@H](C)NC(=O)c3cocn3)c2n1` [Compound 82], for which the IC50 is ≤ 50 nM. As to `Cc1cc(-c2[nH]ncc2C)c2cccc(OCc3c(Cl)cc(F)cc3[C@H](C)NC(=O)C(F)F)c2n1` [Compound 186], the IC50 lay in the range of 51 to 250 nM. The figure for `Cc1cc(-n2cc(F)cn2)c2cccc(OCc3c(Cl)cc(F)cc3[C@H](C)NC(=O)C(CO)CO)c2n1` [Compound 71] is ≤ 50 nM.

As to `CC[C@H](NC(=O)C(F)F)c1cc(F)cc(Cl)c1COc1cccc2c(-c3ncnn3C)cc(C)nc12` [Compound 148], the IC50 was ≤ 50 nM. The figure for `Cc1cc(-n2nc(C)nc2C)c2cccc(OCc3c(Cl)cc(F)cc3[C@H](C)NC(=O)C(C)(C)O)c2n1` [Compound 138] is 51 to 250 nM; for `Cc1cc(-c2ncnn2C)c2cccc(OCc3c(Cl)cc(F)cc3[C@H](C)NC(=O)c3ocnc3C)c2n1` [Compound 126] it is ≤ 50 nM.

Regarding `Cc1cc(-n2cc(F)cn2)c2cccc(OCc3c(Cl)cc(F)cc3[C@H](C)NC(=O)C(C)OCC3CC3)c2n1` (some centres unmarked) [Compound 51], the IC50 lay within 51 to 250 nM. On to `CCn1ncnc1-c1cc(C)nc2c(OCc3c(Cl)cc(F)cc3[C@H](C)NC(=O)c3coc(C)n3)cccc12` [Compound 142], for which the IC50 is ≤ 50 nM. Then `Cc1cc(-c2ncnn2C)c2cccc(OCc3c(Cl)cc(F)cc3[C@H](C)NC(=O)COCC3CC3)c2n1` [Compound 117], with ≤ 50 nM. For `[2H][C@@](C)(NC(=O)CC(F)(F)F)c1cc(F)cc(Cl)c1COc1cccc2c(-c3ncnn3C)cc(C)nc12` [Compound 181], the IC50 was ≤ 50 nM. Then `Cc1cc(-n2cc(F)cn2)c2cccc(OCc3c(Cl)cc(F)cc3[C@H](C)NC(=O)C(C)(C)CO)c2n1` [Compound 60], with ≤ 50 nM.

For orientation: IC50 means the concentration that gives 50% inhibition.

The record behind these values is patent US11820756B2, “Bradykinin B2 receptor antagonists” (Pharvaris Netherlands B.V., priority 2017, dated 2023).
